Results on five compounds are retold here after patent publication US5807899A, “Triphenylethylenes, process for their production, pharmaceutical preparations that contain these triphenylethylenes as well as their use for the production of pharmaceutical agents” (Schering Aktiengesellschaft, priority 1995, dated 1998).

pIC50: −log10 of the molar value.

Assay [1] concerns HeLa cell line. The experiment in a line: Transactivation assay for antiestrogenic action, HeLa cell line. The assay is classed as cell-based. The conditions noted are these: Homo sapiens, antiestrogenic action in transactivation assay. Here is the method:
The compounds of general formula I according to this application are distinguished by a new type of side chain on the phenoxy radical in comparison to the already known tamoxifen derivatives. […] As mentioned an estrogenic partial action can also be present in the-compounds according to the invention. The antiestrogenic and optionally estrogenic action of the compounds according to the invention was determined in a transactivation assay [Demirpence, E.; Duchesne, M.-J.; Badia, E.; Gagne, D.; and Pons, M.: MVLN Cells: A Bioluminescent MCF-7-Derived Cell Line to Study the Modulation of Estrogenic Activity; J. Steroid Molec. Biol.. Vol. 46, No. 3, 355-364 (1993) as well as Savouret, J. F.; Bailly, A.; Misrahi, M.; Rauch, C.; Redeuilh, G.; Chauchereau, A. and Milgrom, E.: Characterization of the Hormone Responsive Element Involved in the Regulation of the Progesterone Receptor Gene, The EMBO Journal Vol. 10, No. 7, 1875-1883 (1991)].
The IC50 values for the new compounds lie in the nanomolar range. In the HeLa cell line, the following IC50 values are produced for the compounds of Examples 5, 12, 13 and 16 (test implementation according to the bibliographic references indicated above): […]

The subject of assay [2] is estrogens (antiestrogenic / estrogenic activity). The following applies: reference compound; cited from earlier work.

As to `CCC(=C(c1ccc(O)cc1)c1ccc(OCCCCC[S+]([O-])CCCC(F)(F)C(F)(F)F)cc1)c1ccccc1` (centres unmarked) [Example 5, 4-(1-{4-[5-(4,4,5,5,5-Pentafluoropentanesulfinyl)-pentyloxy]-phenyl}-2-phenyl-but-1-enyl)-phenol], the pIC50 in assay [1] is 9.00.

`CCC(=C(c1ccc(O)cc1)c1ccc(OCCCCCSCc2ccccn2)cc1)c1ccccc1` [Example 11, 4-((E,Z)-2-Phenyl-1-{4-[5-(pyridin-2-ylmethylsulfidyl)-pentyloxy]-phenyl}-but-1-enyl)-phenol]: the pIC50 in assay [1] is 8.30.

Compound `CCC(=C(c1ccc(O)cc1)c1ccc(OCCCCC[S+]([O-])Cc2ccccn2)cc1)c1ccccc1` (centres unmarked) [Example 12, 4-((E,Z)-2-Phenyl-1-{4-[5-(pyridin-2-ylmethanesulfinyl)-pentyloxy]-phenyl}-but-1-enyl)-phenol] had a negative-log IC50 (pIC50) in assay [1] of 8.55.

In assay [1], `CCC(=C(c1ccc(I)cc1)c1ccc(OCCCCC[S+]([O-])CCCC(F)(F)C(F)(F)F)cc1)c1ccccc1` (centres unmarked) [Example 15, (5-{4-[(E,Z)-1-(4-Iodophenyl)-2-phenyl-but-1-enyl]-phenoxy}-pentyl)-(4,4,5,5,5-pentafluoropentyl)-sulfoxide] gave a pIC50 of 7.77.

On to `CC/C(=C(\c1ccccc1)c1ccc(OCCN(C)C)cc1)c1ccccc1` [tamoxifen], for which, in assay [2], the “antiestrogenic / estrogenic profile of tamoxifen” value is on record as “antiestrogens with estrogenic partial action”.
